In ChEMBL document CHEMBL1135900, “Toward selective ERbeta agonists for central nervous system disorders: synthesis and characterization of aryl benzthiophenes” (J Med Chem, 2002) one finds EC50 data, which are given here for 13 compounds.

The target of assay [1] is T1, Estrogen receptor beta (Homo sapiens, UniProt Q92731).
Description: Activation of estrogen response element in HeLa cells stably transfected with human Estrogen receptor beta.
Assay [2] has as its target T1, Estrogen receptor beta. This is another data set of the same source.
Description: Inhibition of [3H]17-beta-estradiol binding to human recombinant Estrogen receptor beta.
The target of assay [3] is T2, Estrogen receptor (Homo sapiens, UniProt P03372).
T2 sequence (P03372 whole entry): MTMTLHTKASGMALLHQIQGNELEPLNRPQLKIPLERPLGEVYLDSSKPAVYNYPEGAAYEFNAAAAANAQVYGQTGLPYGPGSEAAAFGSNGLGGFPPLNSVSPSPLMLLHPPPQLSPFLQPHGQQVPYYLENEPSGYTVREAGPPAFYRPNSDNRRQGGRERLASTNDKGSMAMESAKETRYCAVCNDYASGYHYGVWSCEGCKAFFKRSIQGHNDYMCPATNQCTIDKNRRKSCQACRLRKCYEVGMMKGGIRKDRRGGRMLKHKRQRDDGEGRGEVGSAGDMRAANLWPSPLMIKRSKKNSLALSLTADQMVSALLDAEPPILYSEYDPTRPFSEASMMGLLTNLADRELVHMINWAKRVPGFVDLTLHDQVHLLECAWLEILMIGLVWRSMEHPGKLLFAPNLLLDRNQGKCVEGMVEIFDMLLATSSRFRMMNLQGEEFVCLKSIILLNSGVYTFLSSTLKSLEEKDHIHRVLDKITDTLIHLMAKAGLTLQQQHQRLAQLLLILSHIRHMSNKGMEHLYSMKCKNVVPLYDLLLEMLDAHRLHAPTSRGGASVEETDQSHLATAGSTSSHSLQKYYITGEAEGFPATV
Description: Inhibition of [3H]17-beta-estradiol binding to human recombinant Estrogen receptor alpha.

Assay [4] concerns the target T2, Estrogen receptor. This is another data set of the same source.
Description: Activation of estrogen response element in HeLa cells stably transfected with human Estrogen receptor alpha.
For assay [5], the target named is T1, Estrogen receptor beta. In words: Agonist activity in transcriptional activation assay in SH-SY5Y neuroblastoma cells expressing Estrogen receptor beta. Type of assay: functional, cell-based.

T1 sequence (Q92731 whole entry): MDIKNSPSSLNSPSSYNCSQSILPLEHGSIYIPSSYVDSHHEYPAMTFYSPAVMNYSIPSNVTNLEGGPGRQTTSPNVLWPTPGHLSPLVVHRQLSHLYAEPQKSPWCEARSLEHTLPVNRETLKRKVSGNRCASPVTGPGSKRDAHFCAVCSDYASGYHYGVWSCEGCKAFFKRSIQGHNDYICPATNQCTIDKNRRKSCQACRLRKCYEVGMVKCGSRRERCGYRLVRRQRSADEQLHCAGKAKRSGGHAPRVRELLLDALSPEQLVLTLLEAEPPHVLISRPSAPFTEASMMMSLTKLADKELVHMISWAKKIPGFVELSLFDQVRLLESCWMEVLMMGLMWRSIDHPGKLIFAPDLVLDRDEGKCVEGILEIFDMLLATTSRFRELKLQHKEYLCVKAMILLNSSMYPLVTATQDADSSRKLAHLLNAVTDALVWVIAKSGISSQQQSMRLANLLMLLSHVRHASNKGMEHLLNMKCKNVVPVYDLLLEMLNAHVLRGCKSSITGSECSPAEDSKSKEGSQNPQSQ

Regarding `Oc1cc(O)c2cc(-c3ccc(O)c(F)c3)sc2c1`, the EC50 is greater than 1000 nM at Estrogen receptor beta [1], 7470 nM at Estrogen receptor beta [2], greater than 10000 nM at Estrogen receptor [3] and 1000 nM on Estrogen receptor [4].

On to `Oc1cccc(-c2cc3ccc(O)cc3s2)c1`, for which the EC50 on Estrogen receptor beta [1] was found to be 245 nM; on Estrogen receptor beta [2] it was 740 nM; on Estrogen receptor [3] it was 2210 nM; on Estrogen receptor [4], 269 nM.

Consider `Cc1cc(-c2cc3c(O)cc(O)cc3s2)ccc1O`, for which the EC50 was greater than 1000 nM at Estrogen receptor beta [1], greater than 10000 nM at Estrogen receptor beta [2], greater than 10000 nM at Estrogen receptor [3] and greater than 1000 nM at Estrogen receptor [4].

On to `CCc1cc(-c2cc3ccc(O)cc3s2)ccc1O`, for which the EC50 at Estrogen receptor beta [1] amounted to 257 nM; on Estrogen receptor beta [2] it was 4710 nM; at Estrogen receptor [3], 7440 nM; at Estrogen receptor [4] it was 191 nM.

As for `Cc1cc(-c2cc3ccc(O)cc3s2)ccc1O`, the EC50 was determined as 302 nM at Estrogen receptor beta [1], 1830 nM at Estrogen receptor beta [2], 3650 nM at Estrogen receptor [3] and 148 nM on Estrogen receptor [4].

Turning to `Oc1ccc2cc(-c3ccc(O)c(F)c3)sc2c1`, the EC50 was found to be 32 nM on Estrogen receptor beta [1]; 115 nM at Estrogen receptor beta [2]; 1030 nM on Estrogen receptor [3]; 13 nM at Estrogen receptor beta [5]; 138 nM at Estrogen receptor [4].

With `Cc1ccc(-c2cc3ccc(O)cc3s2)cc1`, the EC50 is 174 nM at Estrogen receptor beta [1]; greater than 10000 nM at Estrogen receptor beta [2]; greater than 10000 nM at Estrogen receptor [3]; 120 nM on Estrogen receptor beta [5]; 178 nM on Estrogen receptor [4].

Turning to `Cc1cc(O)ccc1-c1cc2ccc(O)cc2s1`, the EC50 at Estrogen receptor beta [1] is 15 nM; on Estrogen receptor beta [2], 129 nM; at Estrogen receptor [3], 341 nM; at Estrogen receptor beta [5] it was 16 nM; on Estrogen receptor [4], 48 nM.

`CCCc1cc(-c2cc3ccc(O)cc3s2)ccc1O`: the EC50 on Estrogen receptor beta [1] was 186 nM; on Estrogen receptor beta [2], 3940 nM; at Estrogen receptor [3] it was greater than 10000 nM; at Estrogen receptor beta [5], 257 nM; on Estrogen receptor [4], 162 nM.

For `Oc1ccc2cc(-c3ccc(O)c(O)c3)sc2c1`, the EC50 at Estrogen receptor beta [1] stood at 525 nM; on Estrogen receptor beta [2], 249 nM; on Estrogen receptor [3], 4980 nM; at Estrogen receptor [4] it was 363 nM.

As to `Oc1ccc2cc(-c3ccccc3)sc2c1`, the EC50 was 166 nM at Estrogen receptor beta [1]; 4310 nM on Estrogen receptor beta [2]; 3710 nM on Estrogen receptor [3]; 69 nM on Estrogen receptor beta [5]; 209 nM on Estrogen receptor [4].

For the compound `CC(=O)c1cc(-c2cc3ccc(O)cc3s2)ccc1O`, the EC50 at Estrogen receptor beta [1] is greater than 1000 nM; at Estrogen receptor beta [2], greater than 10000 nM; at Estrogen receptor [3] it was greater than 10000 nM; on Estrogen receptor [4], greater than 1000 nM.

On to `Oc1ccc(-c2cc3ccc(O)cc3s2)cc1` [RALOXIFENE CORE], for which the EC50 at Estrogen receptor beta [1] amounted to 17 nM; on Estrogen receptor beta [2] it was 114 nM; at Estrogen receptor beta [5] it was 10 nM.

For orientation: EC50 means the concentration that produces a half-maximal response. Low readings indicate greater potency, high ones weaker potency.
